Source: US9618524B2, “Method, composition, isolation and identification of a plaque particle and related biomarker” (Plaxgen Inc., priority 2012, dated 2017)

Experiments:
Assay in all cases: Mass spectroscopy proteomics, semi-quantitative binding affinity of serum proteins (plaqueproteome, Table 2)
Conditions in all cases: higher number = stronger affinity
[1] = target: T1, Abeta-42 plaque particles (Homo sapiens, UniProt P05067)
T1 construct: Abeta 1-42
Summary of the method: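 AD patient serum or plasma (50% in PBS) was incubated with Abeta-42 aggregates (30 μg) for 1 h at 37 °C, then stained with Thioflavin S for 30 min. Labeled particles were FACS-sorted, trypsin/Lys-C digested overnight and analyzed by MS/MS. Sequest searched human UniProt; Scaffold/Protein Prophet validated the identifications.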

Tau plaque particles = system: Tau plaque particles; set-up: species or system human
Summary of the method: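 Synthetic Tau-74 and Tau-275 peptides (1 mg/mL PBS, 37° C, 2 h) aggregated; 30 μg aggregates incubated with 50% serum/plasma 1 h at 37° C, stained with Thioflavin S, and plaque particles sorted by flow cytometry. Bound proteins trypsin-digested and identified by MS/MS against human UniProt.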

[2] = system: Low density cholesterol (Chl small) plaque particles; set-up: species or system human
Summary of the method: (§1)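 Proteins bound to flow-sorted cholesterol plaque particles (large/high-density or small/low-density gates) were identified by LC-MS/MS after trypsin digestion. Particles were formed from 50% atherosclerotic serum or plasma with 30 μg cholesterol aggregates, 1 h, 37 °C. Sequest human database search; Scaffold validation.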

[3] = system: High Density cholesterol (Chl Large) plaque particles; set-up: species or system human
Summary of the method: as §1

[4] = target: T2, alpha-synuclein plaque particles (Homo sapiens, UniProt P37840)
T2 construct: 140 amino acids polypeptide
Summary of the method: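 AD-subject plasma or serum (800 μL of 50%) mixed with 30 μg preformed alpha-synuclein aggregates for 1 h at 37 °C; Thioflavin S-positive particles isolated by flow sorting. After reduction, acrylamide alkylation and overnight tryptic digestion, serum proteins identified by MS/MS with Sequest and Scaffold.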

Substance	Semi-quantitative analysis of proteins binding to different plaque particles: Abeta-42 [1]	Semi-quantitative analysis of proteins binding to different plaque particles: Tau (Tau plaque particles)	Semi-quantitative analysis of proteins binding to different plaque particles: Chl small [2]	Semi-quantitative analysis of proteins binding to different plaque particles: Chl Large [3]	Semi-quantitative analysis of proteins binding to different plaque particles: Synuclein [4]
Cluster of Ig heavy chain V-III region TEI	7	5	6	5	4
Complement component C9	0	0	1	1	1
Ig lambda-7 chain C region	2	3	2	3	4
Complement component C8 alpha chain	0	0	2	3	0
Lysozyme C	4	0	0	0	0
Ig kappa chain V-I region Mev	0	0	1	1	0
Ig lambda chain V-IV region Hil	0	1	1	0	0
Cathepsin D	5	0	0	0	0
Isoform 2 of Protein SET	4	0	0	0	0
Cluster of Ig lambda-2 chain C regions	9	11	9	5	8
Tropomyosin alpha-3 chain	5	0	0	0	0
Ig heavy chain V-III region Gal	2	4	1	0	2
Cluster of Ig gamma-1 chain C region	23	37	63	57	56
Ig heavy chain V-III region BUT	2	1	1	1	1
Apolipoprotein B-100	62	65	51	47	42
Ig kappa chain V-I region HK102	5	1	1	1	1
Ig gamma-1 chain C region	12	27	51	41	44
Ig heavy chain V-III region TIL	5	2	2	0	0
Ig kappa chain V-I region Ni	5	3	2	2	2
Myosin-1	22	0	0	0	0
Ig kappa chain V-I region AU	2	0	1	1	0
Isoform 2 of Clusterin	4	5	4	6	7
